Test results: ChEMBL document CHEMBL3885881, “DrugMatrix”

Species on record: Rattus norvegicus
Experiment: DrugMatrix - Regimen: Daily Repeat
Format: toxicity, organism-based, Sprague-Dawley
Parameters: regimen Daily Repeat, gender Male, age 6-8 weeks
Details: in vivo, po, 35 mg/kg, route oral GAVAGE, dose level Low, vehicle .5 % CMC; for ABSOLUTE BASOPHIL / ABSOLUTE EOSINOPHIL / ABSOLUTE LYMPHOCYTE / ABSOLUTE MONOCYTE / ABSOLUTE SEGMENTED NEUTROPHIL / BASOPHIL / EOSINOPHIL / ERYTHROCYTE COUNT / HEMATOCRIT / HEMOGLOBIN / LEUKOCYTE COUNT / LYMPHOCYTE / MEAN CORPUSCULAR HEMOGLOBIN / MEAN CORPUSCULAR HEMOGLOBIN CONCENTRATION / MEAN CORPUSCULAR VOLUME / MONOCYTE / NEUTROPHIL / NUCLEATED RED BLOOD CELLS / PLATELET COUNT: tissue Blood; for ALANINE AMINOTRANSFERASE / ALBUMIN / ALKALINE PHOSPHATASE / ASPARTATE AMINOTRANSFERASE / BLOOD UREA NITROGEN / CARBON DIOXIDE / CHLORIDE / CHOLESTEROL / CREATINE PHOSPHOKINASE / CREATININE / GLUCOSE / LACTATE DEHYDROGENASE / LIPASE / PHOSPHORUS / POTASSIUM / SODIUM / TOTAL BILIRUBIN / TOTAL PROTEIN / URIC ACID: tissue Plasma

In the case of COC(=O)C1=C(C)NC(C)=C(C(=O)OC)C1c1ccccc1[N+](=O)[O-] [NIFEDIPINE], the “ABSOLUTE BASOPHIL” value (72 h, time 3 day) is reported as 0 CELLS/uL, the “ABSOLUTE EOSINOPHIL” value (72 h, time 3 day) is reported as 0 CELLS/uL and the “ABSOLUTE LYMPHOCYTE” value (72 h, time 3 day) is reported as 17514.67 CELLS/uL. For the same molecule, the “ABSOLUTE MONOCYTE” value (72 h, time 3 day) was 172 CELLS/uL, the “ABSOLUTE SEGMENTED NEUTROPHIL” value (72 h, time 3 day) was 1213.33 CELLS/uL and the BASOPHIL (72 h, time 3 day) was 0%. For the same molecule, the EOSINOPHIL (72 h, time 3 day) was 0%, the “ERYTHROCYTE COUNT” value (72 h, time 3 day) was 5.2 x10E6/uL and the HEMATOCRIT (72 h, time 3 day) was 33.43%. The HEMOGLOBIN (72 h, time 3 day) was 12.8 G/DL, the “LEUKOCYTE COUNT” value (72 h, time 3 day) was 18.9 x10E3/uL and the LYMPHOCYTE (72 h, time 3 day) was 92.67%. The “MEAN CORPUSCULAR HEMOGLOBIN” value (72 h, time 3 day) was 24.63 pg, the “MEAN CORPUSCULAR HEMOGLOBIN CONCENTRATION” value (72 h, time 3 day) was 38.27 G/DL and the “MEAN CORPUSCULAR VOLUME” value (72 h, time 3 day) was 64.3 fL. For the same molecule, the MONOCYTE (72 h, time 3 day) was 1%, the NEUTROPHIL (72 h, time 3 day) was 6.33% and the “NUCLEATED RED BLOOD CELLS” value (72 h, time 3 day) was 0.33 /100WBC. For the same molecule, the “PLATELET COUNT” value (72 h, time 3 day) was 1358.33 x10E3/uL, the “ALANINE AMINOTRANSFERASE” value (72 h, time 3 day) was 46 u/L and the ALBUMIN (72 h, time 3 day) was 4.37 G/DL. For the same molecule, the “ALKALINE PHOSPHATASE” value (72 h, time 3 day) was 361.33 u/L, the “ASPARTATE AMINOTRANSFERASE” value (72 h, time 3 day) was 91.33 u/L and the “BLOOD UREA NITROGEN” value (72 h, time 3 day) was 21.67 mg/dL. For the same molecule, the “CARBON DIOXIDE” value (72 h, time 3 day) was 24 mmol/L, the CHLORIDE (72 h, time 3 day) was 106.33 MEQ/L and the CHOLESTEROL (72 h, time 3 day) was 90.67 mg/dL. For the same molecule, the “CREATINE PHOSPHOKINASE” value (72 h, time 3 day) was 276 u/L, the CREATININE (72 h, time 3 day) was 0.31 mg/dL and the GLUCOSE (72 h, time 3 day) was 142.67 mg/dL. For the same molecule, the “LACTATE DEHYDROGENASE” value (72 h, time 3 day) was 570 u/L, the LIPASE (72 h, time 3 day) was 11 u/L and the PHOSPHORUS (72 h, time 3 day) was 11.77 mg/dL. The POTASSIUM (72 h, time 3 day) was 6.88 MEQ/L, the SODIUM (72 h, time 3 day) was 148.6 MEQ/L and the “TOTAL BILIRUBIN” value (72 h, time 3 day) was 0.2 mg/dL. The “TOTAL PROTEIN” value (72 h, time 3 day) was 6.2 G/DL, the “URIC ACID” value (72 h, time 3 day) was 1.67 mg/dL and the “ABSOLUTE BASOPHIL” value (120 h, time 5 day) was 0 CELLS/uL. For the same molecule, the “ABSOLUTE EOSINOPHIL” value (120 h, time 5 day) was 0 CELLS/uL, the “ABSOLUTE LYMPHOCYTE” value (120 h, time 5 day) was 11212.33 CELLS/uL and the “ABSOLUTE MONOCYTE” value (120 h, time 5 day) was 196 CELLS/uL. The “ABSOLUTE SEGMENTED NEUTROPHIL” value (120 h, time 5 day) was 1358.33 CELLS/uL, the BASOPHIL (120 h, time 5 day) was 0% and the EOSINOPHIL (120 h, time 5 day) was 0%. The “ERYTHROCYTE COUNT” value (120 h, time 5 day) was 6.29 x10E6/uL, the HEMATOCRIT (120 h, time 5 day) was 40.53% and the HEMOGLOBIN (120 h, time 5 day) was 14.9 G/DL. For the same molecule, the “LEUKOCYTE COUNT” value (120 h, time 5 day) was 12.77 x10E3/uL, the LYMPHOCYTE (120 h, time 5 day) was 88.33% and the “MEAN CORPUSCULAR HEMOGLOBIN” value (120 h, time 5 day) was 23.67 pg. The “MEAN CORPUSCULAR HEMOGLOBIN CONCENTRATION” value (120 h, time 5 day) was 36.77 G/DL, the “MEAN CORPUSCULAR VOLUME” value (120 h, time 5 day) was 64.4 fL and the MONOCYTE (120 h, time 5 day) was 1.33%. For the same molecule, the NEUTROPHIL (120 h, time 5 day) was 10.33%, the “NUCLEATED RED BLOOD CELLS” value (120 h, time 5 day) was 0 /100WBC and the “PLATELET COUNT” value (120 h, time 5 day) was 1155 x10E3/uL. For the same molecule, the “ALANINE AMINOTRANSFERASE” value (120 h, time 5 day) was 57 u/L, the ALBUMIN (120 h, time 5 day) was 4.5 G/DL and the “ALKALINE PHOSPHATASE” value (120 h, time 5 day) was 414.33 u/L. The “ASPARTATE AMINOTRANSFERASE” value (120 h, time 5 day) was 79.67 u/L, the “BLOOD UREA NITROGEN” value (120 h, time 5 day) was 19 mg/dL and the “CARBON DIOXIDE” value (120 h, time 5 day) was 23 mmol/L. For the same molecule, the CHLORIDE (120 h, time 5 day) was 104 MEQ/L, the CHOLESTEROL (120 h, time 5 day) was 81.67 mg/dL and the “CREATINE PHOSPHOKINASE” value (120 h, time 5 day) was 210 u/L. The CREATININE (120 h, time 5 day) was 0.21 mg/dL, the GLUCOSE (120 h, time 5 day) was 163.67 mg/dL and the “LACTATE DEHYDROGENASE” value (120 h, time 5 day) was 114.33 u/L. The LIPASE (120 h, time 5 day) was 10 u/L, the PHOSPHORUS (120 h, time 5 day) was 13.37 mg/dL and the POTASSIUM (120 h, time 5 day) was 7.57 MEQ/L. For the same molecule, the SODIUM (120 h, time 5 day) was 147 MEQ/L, the “TOTAL BILIRUBIN” value (120 h, time 5 day) was 0.27 mg/dL and the “TOTAL PROTEIN” value (120 h, time 5 day) was 6.5 G/DL. For the same molecule, the “URIC ACID” value (120 h, time 5 day) was 2 mg/dL.
